According to US20040034093A1, “Methods for enhancing motor performance and/or endurance” (priority 2002, published 2004):

What was measured:
[1] = test system: tocopherol-depleted rats; details: rats fed tocopherol for two weeks after chronic iron-dextran (Dillard et al., 1983); cited from earlier work
[2] = test system: humans; details: limited trials in humans (Clarkson 1995; Powers and Lennon 1999); cited from earlier work
[3] = test system: rodent; details: rodent (Novelli et al., 1990); cited from earlier work
[4] = cited from earlier work; for absorption by the gut: Traber et al., 1992
[5] = test system: Normal, nontransgenic (NonTg) C57/B6 mice; assay: rotorod performance task (motor function); format: in vivo; details: diet supplemented with additional 200 mg/kg tocopherol from 40 days of age; versus basal diet or α-tocopherol supplemented diet
Description: Normal, nontransgenic (NonTg) C57/B6 mice were studied for efficacy of γT on motor performance and/or enhanced muscle function. Beginning at 40 days of age, animals were fed a basal AIN93G laboratory animal diet containing 75 mg/kg α-tocopherol and negligible γ-tocopherol; or the same diet supplemented with an additional 200 mg/kg α-tocopherol or γ-tocopherol. Motor function was measured by a standard rotorod performance task (Klivenyi et al., 1999). Animals were placed on a motorized, rubber-coated metal rod that was set to rotate at 1 rpm increasing by 1 rpm every 10 seconds (Klivenyi et al., 1999). The speed of the rod rotation at which the mouse falls off is taken as a measure of motor competency (Klivenyi et al., 1999). Each mouse was tested in three trials every 10 days.

[6] = relative to the corresponding reaction of αT (Cooney et al., 1993); cited from earlier work
[7] = test system: methylcholanthrene-treated C3H/10T1/2 fibroblasts; details: methylcholanthrene-treated C3H/10T1/2 fibroblasts (Cooney et al., 1993); cited from earlier work
[8] = liposomal tocopherol exposed to synthetic peroxynitrite (Christen et al., 1997); cited from earlier work
[9] = test system: iron-induced lipid peroxidation and occlusive thrombus formation; details: Saldeen et al., 1999; cited from earlier work

Compound | inhibition of systemic lipid oxidation [1] | muscle endurance [2] | endurance during a swimming test [3] | absorption by the gut [4] | capability of performing the motor function task (rotorod) [5] | rate of in vitro reaction with NO2 gas relative to αT [6] [times] | effectiveness at inhibiting neoplastic transformation relative to αT [7] [fold] | effectiveness at inhibiting lipid hydroperoxide formation relative to αT [8] | effectiveness at inhibiting systemic lipid oxidation relative to αT [1] | potency at inhibition of iron-induced lipid peroxidation and occlusive thrombus formation relative to αT [9] | packaging into lipoproteins ([4]; relative to αT (Traber et al., 1992))
Cc1c(C)c2c(c(C)c1O)CC[C@@](C)(CCC[C@H](C)CCC[C@H](C)CCCC(C)C)O2 [α-tocopherol, reference compound] | inhibited systemic lipid oxidation | did not extend muscle endurance | extended rodent endurance | absorbed equally well | – | – | – | – | – | – | –
Cc1c(O)cc2c(c1C)O[C@](C)(CCC[C@H](C)CCC[C@H](C)CCCC(C)C)CC2 [γ-tocopherol] | inhibited systemic lipid oxidation | – | – | absorbed equally well | significantly more capable of performing the motor function task | 6 | 4 | twice as effective | approximately 35% | 20-30 times | less effectively
